Experimental data: PubChem BioAssay (NCI)
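Each compound was tested at five concentrations against cells in 96-well plates for 48 hours. TGI denotes the concentration required for complete inhibition of growth.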

Columns and labels:
Assay in all cases: NCI-60 cell line screen, 48 h
[1] = tested on: 786-0 renal
[2] = tested on: A498 renal
[3] = tested on: A549 NSCLC
[4] = tested on: ACHN renal
[5] = tested on: BT-549 breast
[6] = tested on: CAKI-1 renal
[7] = tested on: CCRF-CEM leukemia
[8] = tested on: COLO 205 colon
[9] = tested on: DU-145 prostate
[10] = tested on: EKVX NSCLC
[11] = tested on: HCT-116 colon
[12] = tested on: HCT-15 colon
[13] = tested on: HL-60(TB) leukemia
[14] = tested on: HOP-62 NSCLC
[15] = tested on: HOP-92 NSCLC
[16] = tested on: HS 578T breast
[17] = tested on: HT29 colon
[18] = tested on: IGROV1 ovarian
[19] = tested on: K-562 leukemia
[20] = tested on: KM12 colon
[21] = tested on: LOX IMVI melanoma
[22] = tested on: M14 melanoma
[23] = tested on: MALME-3M melanoma
[24] = tested on: MCF7 breast
[25] = tested on: MDA-MB-231 breast
[26] = tested on: MDA-MB-435
[27] = tested on: MDA-N
[28] = tested on: MOLT-4 leukemia
[29] = tested on: NCI-H23 lung
[30] = tested on: NCI-H460 lung
[31] = tested on: NCI-H522 lung
[32] = tested on: NCI/ADR-RES ovarian
[33] = tested on: OVCAR-3 ovarian
[34] = tested on: OVCAR-4 ovarian
[35] = tested on: OVCAR-5 ovarian
[36] = tested on: OVCAR-8 ovarian
[37] = tested on: PC-3 prostate
[38] = tested on: RXF 393 renal
[39] = tested on: SF-268 CNS
[40] = tested on: SF-295 CNS
[41] = tested on: SF-539 CNS
[42] = tested on: SK-MEL-2 melanoma
[43] = tested on: SK-MEL-28 melanoma
[44] = tested on: SK-MEL-5 melanoma
[45] = tested on: SK-OV-3 ovarian
[46] = tested on: SN12C renal
[47] = tested on: SNB-19 CNS
[48] = tested on: SR leukemia
[49] = tested on: T-47D breast
[50] = tested on: TK-10 renal
[51] = tested on: U251 CNS
[52] = tested on: UACC-257 melanoma
[53] = tested on: UACC-62 melanoma
[54] = tested on: UO-31 renal
[55] = tested on: HCC-2998 colon
[56] = tested on: NCI-H226 lung
[57] = tested on: RPMI-8226 leukemia
[58] = tested on: SW-620 colon
[59] = tested on: SNB-75 CNS

## O=C(CCc1ccc(O)cc1)NCCc1cccc(O)c1
[1]
  TGI: > 50 µM
[2]
  TGI: > 50 µM
[3]
  TGI: > 50 µM
[4]
  TGI: > 50 µM
[5]
  TGI: > 50 µM
[6]
  TGI: > 50 µM
[7]
  TGI: > 50 µM
[8]
  TGI: > 50 µM
[9]
  TGI: > 50 µM
[10]
  TGI: > 50 µM
[11]
  TGI: > 50 µM
[12]
  TGI: > 50 µM
[13]
  TGI: > 50 µM
[14]
  TGI: > 50 µM
[15]
  TGI: > 50 µM
[16]
  TGI: > 50 µM
[17]
  TGI: > 50 µM
[18]
  TGI: > 50 µM
[19]
  TGI: > 50 µM
[20]
  TGI: > 50 µM
[21]
  TGI: > 50 µM
[22]
  TGI: > 50 µM
[23]
  TGI: > 50 µM
[24]
  TGI: > 50 µM
[25]
  TGI: > 50 µM
[26]
  TGI: > 50 µM
[27]
  TGI: > 50 µM
[28]
  TGI: > 50 µM
[29]
  TGI: > 50 µM
[30]
  TGI: > 50 µM
[31]
  TGI: > 50 µM
[32]
  TGI: > 50 µM
[33]
  TGI: > 50 µM
[34]
  TGI: > 50 µM
[35]
  TGI: > 50 µM
[36]
  TGI: > 50 µM
[37]
  TGI: > 50 µM
[38]
  TGI: > 50 µM
[39]
  TGI: > 50 µM
[40]
  TGI: > 50 µM
[41]
  TGI: > 50 µM
[42]
  TGI: > 50 µM
[43]
  TGI: > 50 µM
[44]
  TGI: > 50 µM
[45]
  TGI: > 50 µM
[46]
  TGI: > 50 µM
[47]
  TGI: > 50 µM
[48]
  TGI: > 50 µM
[49]
  TGI: > 50 µM
[50]
  TGI: > 50 µM
[51]
  TGI: > 50 µM
[52]
  TGI: > 50 µM
[53]
  TGI: > 50 µM
[54]
  TGI: > 50 µM

## CC1OC2=N[C@@H]1C(=O)N[C@@H](Cc1ccccc1)C1=N[C@H](C(=O)N[C@@H](Cc3ccccc3)C3=N[C@H](C(=O)N[C@H]2Cc2ccccc2)C(C)O3)C(C)O1 (stereo partly specified)
[2]
  TGI: 91.9 µM
[3]
  TGI: > 100 µM
[4]
  TGI: > 100 µM
[5]
  TGI: > 100 µM
[6]
  TGI: 88.6 µM
[8]
  TGI: 34.4 µM
[9]
  TGI: > 100 µM
[10]
  TGI: > 100 µM
[55]
  TGI: > 100 µM
[11]
  TGI: > 100 µM
[12]
  TGI: > 100 µM
[14]
  TGI: > 100 µM
[15]
  TGI: 59.7 µM
[16]
  TGI: 65.8 µM
[17]
  TGI: 52.5 µM
[18]
  TGI: > 100 µM
[19]
  TGI: 68.7 µM
[20]
  TGI: > 100 µM
[21]
  TGI: 39.4 µM
[22]
  TGI: 56.4 µM
[23]
  TGI: 57.6 µM
[24]
  TGI: > 100 µM
[25]
  TGI: 72 µM
[26]
  TGI: 81.7 µM
[27]
  TGI: > 100 µM
[56]
  TGI: 93.9 µM
[29]
  TGI: > 100 µM
[32]
  TGI: > 100 µM
[33]
  TGI: 75.8 µM
[34]
  TGI: > 100 µM
[35]
  TGI: 68.5 µM
[36]
  TGI: > 100 µM
[37]
  TGI: 73.2 µM
[57]
  TGI: 34.1 µM
[38]
  TGI: > 100 µM
[40]
  TGI: > 100 µM
[41]
  TGI: 47.4 µM
[42]
  TGI: 52.3 µM
[43]
  TGI: 69.2 µM
[44]
  TGI: 57.8 µM
[45]
  TGI: > 100 µM
[46]
  TGI: > 100 µM
[48]
  TGI: 62.6 µM
[58]
  TGI: > 100 µM
[49]
  TGI: > 100 µM
[50]
  TGI: 69.5 µM
[52]
  TGI: 71.2 µM
[53]
  TGI: 80.1 µM
[54]
  TGI: > 100 µM

## COc1ccccc1NCc1nnc(CCCCCCCCc2nnc(CNc3ccccc3OC)o2)o1
[1]
  TGI: > 100 µM
[2]
  TGI: > 100 µM
[3]
  TGI: > 100 µM
[4]
  TGI: > 100 µM
[5]
  TGI: > 100 µM
[6]
  TGI: > 100 µM
[7]
  TGI: > 100 µM
[8]
  TGI: > 100 µM
[9]
  TGI: > 100 µM
[10]
  TGI: > 100 µM
[55]
  TGI: > 100 µM
[11]
  TGI: > 100 µM
[12]
  TGI: > 100 µM
[14]
  TGI: > 100 µM
[15]
  TGI: > 100 µM
[16]
  TGI: > 100 µM
[17]
  TGI: > 100 µM
[19]
  TGI: > 100 µM
[20]
  TGI: > 100 µM
[21]
  TGI: > 100 µM
[22]
  TGI: > 100 µM
[23]
  TGI: > 100 µM
[24]
  TGI: > 100 µM
[25]
  TGI: > 100 µM
[26]
  TGI: > 100 µM
[27]
  TGI: > 100 µM
[28]
  TGI: > 100 µM
[29]
  TGI: > 100 µM
[30]
  TGI: > 100 µM
[31]
  TGI: > 100 µM
[32]
  TGI: > 100 µM
[33]
  TGI: > 100 µM
[34]
  TGI: > 100 µM
[35]
  TGI: > 100 µM
[36]
  TGI: > 100 µM
[37]
  TGI: > 100 µM
[57]
  TGI: > 100 µM
[38]
  TGI: > 100 µM
[39]
  TGI: > 100 µM
[40]
  TGI: > 100 µM
[42]
  TGI: > 100 µM
[44]
  TGI: > 100 µM
[45]
  TGI: > 100 µM
[46]
  TGI: > 100 µM
[47]
  TGI: > 100 µM
[59]
  TGI: > 100 µM
[48]
  TGI: > 100 µM
[49]
  TGI: > 100 µM
[50]
  TGI: > 100 µM
[51]
  TGI: > 100 µM
[52]
  TGI: > 100 µM
[53]
  TGI: > 100 µM
[54]
  TGI: > 100 µM
